Measurements taken from patent US20250025451A1, “TREATMENT OF CANCER WITH KDM4 INHIBITORS” (Celgene Corporation, priority 2021, published 2025).
Several values for one entry are separate records, joined by “and”; a condition that tells them apart may be missing. Identical values can stand only once. Like-named read-outs stand apart in the source and are kept apart here.

Key:
[1] = test system: human cancer cell lines; assay: apoptosis in human cancer cell lines; type: cell-based
[2] = test system: gene expression (PNUTS, ANK1, IBA57, SOWAHD, MF12-AS1, CECR1); assay: RNA-seq analysis of pharmacodynamic biomarkers in diffuse large B-Cell Lymphoma xenografts; type: in vivo
From the text: RNA-seq and ChIP-seq analyses were employed to identify potential clinical pharmacodynamic (PD) biomarkers as molecular indicators for monitoring the effects of treatment with Compound 1.
[…] In the ChIP-seq analysis, 65 genes were identified to show direct KDM4C promoter occupancy.

[3] = test system: colorectal cancer PDX models; assay: culture-based viability inhibition assay, colorectal cancer PDX models; type: cell-based; conditions: for IC50: read-out: IC50 (range over sensitive models); for Sensitive to Compound 1 (models sensitive/tested): sensitive = IC50<1 μM
Procedure: A panel of 13 colorectal cancer PDX models and 6 colorectal cancer organoid PDX models were tested for their sensitivity to Compound 1 in culture-based viability inhibition assays. The MSI-H status of the studied colorectal cancer cell lines and their respective mutations of the MMR path genes are shown in FIG. 19.

[4] = test system: IMR-90; assay: cell-proliferation assay (BrdU, CTG), IMR-90 normal fibroblast; type: cell-based; conditions: IMR-90, (normal) human fetal lung fibroblast, 168 hours
Procedure: Compound 1 was evaluated in in vitro cell-proliferation assays (BrdU assay, MTS assay, or Cell Titer Glo (CTG) assay) in multiple cancer cell lines and patient-derived organoid models to determine half-maximal inhibitory concentrations (IC50s).
Viability and BrdU thymidine incorporation assays were performed in multiwell plates seeded with cells in growth medium. After seeding, multiwell plates were cultured for 24 hours in a humidified incubator at 37° C. to promote adherence. […] The cultures were incubated for 168 hours after which the number of viable cells or the amount of thymidine incorporation in each test well was assessed by the methods as indicated above. Readouts were performed using an EnVision® Multilabel Reader (PerkinElmer, Waltham, MA) and the results were expressed as a percent of the negative control. Percent of Control values were plotted against the corresponding Compound 1 concentration and the relative IC50 value was determined from a non-linear regression curve as the concentration where inhibition was half-maximal. For cell lines where the number of IC50 determinations exceeded one, the IC50 was expressed as the mean IC50±SD.
Half-maximal inhibitory concentration (IC50) values for Compound 1 inhibition of cell proliferation were determined for nine cancer cell lines and one normal human fibroblastcell line.

[5] = in vivo at 2.5, 5, 7.5, 15 and 50 mg/kg, dose-dependent
[6] = MSI colorectal cancer PDX models
[7] = MSS colorectal cancer PDX models

CC(C)c1ccc(N(C)c2ccc3c(c2)OCC[C@H]3CNc2cnccc2C(=O)O)cc1 [Compound 1, 3-({[(4R)-7-{methyl[4-(propan-2-yl)phenyl]amino}-3,4-dihydro-2H-1-benzopyran-4-yl]methyl}amino)pyridine-4-carboxylic acid]
effect on apoptosis [1]: induces apoptosis
number of genes up- or downregulated ≥2-fold ([2]; RNA-seq, 37.3 mg/kg, diffuse large B-Cell Lymphoma xenografts models): 326
change of PNUTS, ANK1, and IBA57 gene expression [2, 5]: downregulated
change of SOWAHD, MF12-AS1, and CECR1 gene expression [2, 5]: upregulated
IC50 [3, 6]: 1 to 14 nM
Sensitive to Compound 1 (models sensitive/tested) [3, 6]: 5 out of 5 and 5/5
IC50 [3, 7]: 3 to 270 nM
Sensitive to Compound 1 (models sensitive/tested) [3, 7]: 4 out of 8 and 4/8
IC50 [4]: > 1000 nM
